Assay results: US9938250B2, “Antifibrotic effects of oxetanyl sulfoxides” (University of Pittsburgh—Of the Commonwealth System of …, priority 2015, dated 2018)
“Also recorded” adds a separate entry of the source.

How the values were obtained:
[1] = discussion, comparison of DMSO with MMS-350; cited from earlier work
[2] = tested on: primary human fibroblasts; assay: TGFβ-induced fibrotic markers in primary human lung fibroblasts, immunoblotting; assay type: cell-based
Protocol: All tissues were obtained under a protocol approved by the Institutional Review Board of the University of Pittsburgh and with written consent. Primary human fibroblasts were cultured from the lung tissues of normal donors and patients undergoing lung transplantation. Fibroblasts were grown in Dulbecco's modified Eagle's medium (DMEM) supplemented with 10% fetal bovine serum (FBS), 100 U/mL penicillin, […] streptomycin and […] amphotericin B, and maintained at 37° C. in 5% CO2 humidified incubator. Three strains of normal primary human fibroblasts were plated on 6-well plates at a seeding density of 2.5×10^5 cells per well. Cells were serum starved for 6-16 h and treated with vehicle, TGFβ (10 ng/mL), MMS-350 (0.5 mg/mL), or TGFβ+MMS-350. Experiments using KRL507-031 were performed similarly. The cell lysates and culture supernatants were harvested 72 h after treatment and analyzed by immunoblotting.
Fibroblasts were rinsed with 1× PBS, scraped into 100 μL of 2×-sodium dodecyl sulfate (SDS) sample buffer, and boiled for 5 min. Equal protein amounts of cell lysates or supernatants were resolved on 10-12% sodium dodecyl sulfate polyacrylamide (SDS-PAGE) gels. Proteins were transferred to 0.2 μm nitrocellulose membranes (Whatman, Germany) and blocked with 5% nonfat dry milk in TBS-Tween 20 for 1 h at room temperature. Membranes were incubated with primary antibodies overnight at 4° C. followed by horseradish peroxidase-conjugated secondary antibodies for 1 h at room temperature. Signals were detected with enhanced chemiluminescence (Perkin Elmer Life Sciences, Inc., Boston, Mass.) and imaged with the FluorChem E digital imaging system from Protein Simple (Santa Clara, Calif.). Results were analyzed using the accompanying software Alphaview.

[3] = tested on: C57BL/6J mice; assay: Bleomycin-induced pulmonary fibrosis in mice; assay type: in vivo
Protocol: Pulmonary fibrosis was induced in male 6- to 8-week-old C57BL/6J mice by intratracheal administration of 1 mg/kg of Bleomycin (Enzo) in a total volume of 50 uL. Mice were orally administered either 200 uL of PBS or MMS-350 (2%) on a daily basis and lungs were harvested after 5 and 14 days. Right lungs were fixed in 10% neutralized formalin and paraffin embedded. Left lungs were frozen for hydroxyproline assay and total RNA extraction.
Six-micrometer sections of paraffin-embedded mouse lung tissues were stained with H&E and images were taken on an Olympus Provis III microscope (Olympus America Inc.) with identical settings.
Hydroxyproline assay. The hydroxyproline content of mouse lung tissues obtained on day 14 was measured as described (41) and adjusted by lung weight.
Frozen mouse lung tissues obtained on day 5 were placed in 1.5 mL of RNase free Red Bead Lysis Kit tubes (Next Advance) containing 500 uL of TRIzol® Reagent (Life Technologies) and homogenized using BBX24 Bullet Blender® (Next Advance). Total RNA was extracted and purified with RNeasy Mini Kit (Qiagen). Reverse transcription was performed with SuperScript II (Invitrogen) followed by quantitative polymerase chain reaction (PCR) amplification with the TaqMan method (ABI Prism 7300; Applied Biosystems). Premixed PCR primers and TaqMan probes for mouse collagen 1A2 and GAPDH were obtained from Applied Biosystems. Gene expression levels were normalized to GAPDH and compared with the 2^−ΔΔCt method.

[4] = Aqueous solubility, statement only; assay type: physicochemical
[5] = tested on: experimental mice; conditions: cited from earlier work
[6] = tested on: endothelial and alveolar type II cells; conditions: cells cultured from lung tissues of mice following thoracic irradiation; Kalash et al In vivo 2013; cited from earlier work
[7] = TGFβ 10 ng/mL + MMS-350 0.5 mg/mL vs TGFβ1 alone, 72 h

Structure (SMILES)	log P (lipophilicity) [1]	CTGF secreted protein [2, 7]	IGFBP3 (BP3) secreted protein [2, 7]	collagen 1α1 (Col1) protein [2, 7]	fibronectin (FN) protein [2, 7]	α-SMA protein (marker of fibroblast activation) [2, 7]	anti-fibrotic activity on delayed addition ([2]; compound added 30 min to 6 h after TGFβ)	Collagen α2I mRNA levels in lung ([3]; MMS-350 (2%) oral daily, day 5)	hydroxyproline levels in lung ([3]; MMS-350 (2%) oral daily, day 14)	lung fibrosis, histology (H&E) ([3]; bleomycin 1 mg/kg intratracheal, MMS-350 (2%) 200 uL oral daily, day 14)	overall survival ([3]; bleomycin + MMS-350, bleomycin-treated mice 62.5%) [%]	toxicity ([3]; given orally)	weight loss ([3]; vs mice treated with bleomycin alone, data not shown)	aqueous solubility [4]	mitigation of ionizing irradiation ([5]; Goff et al 2013)	radiation-induced pulmonary fibrosis ([5]; Kalash et al Radiat Res 2013)	survival of irradiated mice ([5]; Kalash et al Radiat Res 2013)	pro-fibrotic gene expression [6]
C[S+](C)[O-] [DMSO, dimethyl sulfoxide, reference compound]	-1.4	–	–	–	–	–	–	–	–	–	–	–	–	–	–	–	–	–
CC1(C[S+]([O-])CC2(C)COC2)COC1 [MMS-350, 3,3′-Sulfinylbis(methylene)bis(3-methyloxetane)]	−0.7	significantly decreased	significantly decreased	significantly decreased	significantly decreased	significantly decreased	profound anti-fibrotic activity	reduced	significant reduction	ameliorated fibrosis histologically	87.5	no toxicity	less weight loss	exquisite aqueous solubility; also recorded: exceptionally high aqueous solubility	mitigator of ionizing irradiation	ameliorate radiation-induced pulmonary fibrosis	increase survival	reduce pro-fibrotic gene expression
